Measured values published in patent publication US20220213060A1, “Crystal Form of Quinazolinone Compound and Preparation Method Therefor” (Luoxin Healthcare Science and Technology Development …, priority 2019, published 2022).
Like-named read-outs stand apart in the source and are kept apart here.

Experiments:
[1] = test system: human ovarian cancer SKOV-3 (PIK3CA H1047R mutation); assay: In vivo pharmacodynamic study, SKOV-3 nude mouse subcutaneous xenograft tumor model; design: species or system BALB/c nude mice; settings: for T/C % / TGI %: oral once a day for 28 days
Protocol: Human SKOV-3 ovarian cancer cells with PIK3CA H1047R mutation. This experiment evaluated the efficacy of the crystal form A of the represented by formula (I) in a human ovarian cancer xenograft tumor model.
Cell culture: Human ovarian cancer SKOV-3 cells were cultured in vitro in a single layer, the culture condition was RPMI-1640 medium with 10% fetal bovine serum, and the cells were incubated in 5% CO2 at 37° C. Digestion and passage treatment with trypsin-EDTA was carried out twice a week. When the cell saturation was 80%-90% and the number reached the requirement, the cells were collected, counted and inoculated.
Animals: BALB/c nude mice, female, 6-8 weeks old, weighing 18-20 g. A total of 67 animals were required, and provided by Beijing Vital River Biotechnology Co., Ltd.
Tumor inoculation: 0.2 mL (10×10^6 cells) of SKOV-3 cells (with matrigel in a volume ratio of 1:1) were subcutaneously inoculated on the right back of each mouse, group administration was started when the average tumor volume reached 150 mm^3-200 mm^3.
Tumor-bearing mice in each administration group had good tolerance to the tested compounds.

[2] = Sprague Dawley (SD) rat absorption test (pharmacokinetics); assay type: in vivo, SD rats; settings: for C0 / Tmax / bioavailability / Tmax at 7 days / Vd / AUC(0-t) / clearance / half-life / Cmax / half-life at 7 days: Sprague-Dawley, rat, plasma; for AUC0-last / t1/2: listed as crystal form A of the compound represented by formula (I); for Vd: read-out: Vdss
Protocol: SD rats were given the crystal form A of the compound represented by formula (I) by single or multiple oral gavage and single intravenous injection respectively, with 6 rats in each group, half male and half female. According to the results of pharmacodynamic and toxicological experiments, the single oral gavage doses were 3, 10 and 30 mg/kg respectively; the multiple doses were 10 mg/kg, once a day for 7 consecutive days; the single intravenous dose was 1 mg/kg. According to the drug plasma concentration-time curve, the pharmacokinetic parameters were calculated. In this experiment, SD rats were provided by Beijing Vital River Experimental Animal Technology Co., Ltd., and were divided into 4 groups (3/sex/group) according to their similar weight. The vehicle for the intravenous group was 5% HP-betaCD/5% Solutol aqueous solution (pH=8); the vehicle for the oral group was 0.5% MC/0.2% Tw80 aqueous solution. Plasma samples were collected by jugular vein puncture in rats.

[3] = 10 mg/kg, listed as crystal form A of the compound represented by formula (I)
[4] = 20 mg/kg, listed as crystal form A of the compound represented by formula (I)
[5] = 40 mg/kg, listed as crystal form A of the compound represented by formula (I)
[6] = female SD rats, oral, 3 mg/kg, single
[7] = male SD rats, oral, 3 mg/kg, single
[8] = female SD rats, vein, 1 mg/kg, single
[9] = female, iv, 1 mg/kg, female SD rats, vein, single
[10] = female, po, 3 mg/kg, female SD rats, single
[11] = female, po, 10 mg/kg, female SD rats, oral, 10 mg/kg once a day, Day 7
[12] = female, po, 10 mg/kg, female SD rats, oral, 10 mg/kg, Day 1
[13] = female, po, 30 mg/kg, female SD rats, single
[14] = male SD rats, vein, 1 mg/kg, single
[15] = male, iv, 1 mg/kg, male SD rats, vein, single
[16] = male, po, 3 mg/kg, male SD rats, single
[17] = male, po, 10 mg/kg, male SD rats, oral, 10 mg/kg once a day, Day 7
[18] = male, po, 10 mg/kg, male SD rats, oral, 10 mg/kg, Day 1
[19] = male, po, 30 mg/kg, male SD rats, single

## CNC(=O)[C@H](C)Cn1cnc2ccc(-c3cnc(OC)c(NS(=O)(=O)c4ccc(F)cc4F)c3)cc2c1=O
[1]; 10 mg/kg
  Anti-tumor effect (in words): a certain anti-tumor effect
  T/C %: 69.17%
  TGI %: 30.45%
[1]; [3]
  T/C %: 69.17%
  TGI %: 30.45%
[1]; 20 mg/kg
  Anti-tumor effect (in words): a certain anti-tumor effect
  T/C %: 60.61%
  TGI %: 41.42%
[1]; [4]
  T/C %: 60.61%
  TGI %: 41.42%
[1]; 40 mg/kg group
  Anti-tumor effect (in words): significant anti-tumor effects
[1]; 40 mg/kg
  T/C %: 37.79%
  TGI %: 69.16%
[1]; [5]
  T/C %: 37.79%
  TGI %: 69.16%
[2]; iv, female SD rats, vein, 1 mg/kg, single
  C0: 14.2 µM
[2]; iv, male SD rats, vein, 1 mg/kg, single
  C0: 12.7 µM
[2]; [6]
  Tmax: 0.5 h
  bioavailability: 53.1%
[2]; female SD rats, oral, 10 mg/kg once a day, Day 7
  Tmax at 7 days: 0.5 h
[2]; female SD rats, oral, 10 mg/kg, Day 1
  Tmax: 0.667 ± 0.289 h
[2]; female SD rats, oral, 30 mg/kg, single
  Tmax: 0.5 h
[2]; [7]
  Tmax: 0.417 ± 0.144 h
  bioavailability: 34.7%
[2]; male SD rats, oral, 10 mg/kg once a day, Day 7
  Tmax at 7 days: 0.667 h
[2]; male SD rats, oral, 10 mg/kg, Day 1
  Tmax: 0.5 h
[2]; male SD rats, oral, 30 mg/kg, single
  Tmax: 0.667 ± 0.289 h
[2]; [8]
  AUC0-last: 17.4 µM·h
  t1/2: 3.26 h
[2]; female, iv, 1 mg/kg, female SD rats, vein, 1 mg/kg, single
  Vd: 0.257 ± 0.0227 L/kg
[2]; [9]
  AUC(0-t): 9.89 ± 1.41 µM·h
  clearance: 3.12 ± 0.431 mL/min/kg
  half-life: 1.63 ± 0.809 h
[2]; [10]
  AUC(0-t): 27.7 ± 8.72 µM·h
  Cmax: 6.39 ± 1.71 µM
  half-life: 2.71 h
[2]; [11]
  AUC(0-t): 86 ± 19.9 µM·h
  Cmax: 20.5 ± 4.6 µM
  half-life at 7 days: 3.74 h
[2]; [12]
  AUC(0-t): 60.9 ± 10.9 µM·h
  Cmax: 12.1 ± 3.69 µM
  half-life: 2.92 h
[2]; [13]
  AUC(0-t): 177 ± 48 µM·h
  Cmax: 39.1 µM
  half-life: 2.72 h
[2]; [14]
  AUC0-last: 9.89 µM·h
  t1/2: 1.63 h
[2]; male, iv, 1 mg/kg, male SD rats, vein, 1 mg/kg, single
  Vd: 0.265 ± 0.05 L/kg
[2]; [15]
  AUC(0-t): 17.4 ± 4.79 µM·h
  clearance: 1.79 ± 0.457 mL/min/kg
  half-life: 3.26 ± 1.13 h
[2]; [16]
  AUC(0-t): 10.3 ± 4.6 µM·h
  Cmax: 4.77 ± 1.01 µM
  half-life: 2.26 h
[2]; [17]
  AUC(0-t): 48.5 ± 4.64 µM·h
  Cmax: 13.9 ± 1.61 µM
  half-life at 7 days: 3.95 h
[2]; [18]
  AUC(0-t): 23.7 ± 0.721 µM·h
  Cmax: 6.8 ± 0.583 µM
  half-life: 2.49 h
[2]; [19]
  AUC(0-t): 45.3 ± 10.9 µM·h
  Cmax: 14.5 ± 4.73 µM
  half-life: 2.61 h
